What was measured:
[1] = test system: ectopic endochondral bone formation in BMP-Matrigel; assay: Ectopic bone formation model (rhBMP-2-containing Matrigel injected subcutaneously); format: in vivo, mouse; conditions: for biological activities in an ectopic bone formation model: mouse, in vivo; for ectopic bone formation (μCT, BV/TV): oral gavage on day 3, 5 and 7, ectopic masses collected day 12, vs vehicle
Protocol: Ectopic bone formation was induced in mice according to known methods. See Shimono et al., J. Orthop. Res. 28(2):271-277, 2010. Briefly, recombinant human bone morphogenetic protein-2 (rhBMP-2; Gene Script™ Corp., Piscataway, NJ) was added to growth-factor reduced Matrigel™ (BD Bioscience™, Inc., Franklin Lakes, NJ) on ice to a final concentration of 4 µg/mL. Two hundred fifty 250 μL, rhBMP-2-containing Matrigel™ was injected into the left and right subcutaneous abdominal region of 2-month-old CD-1 female mice. Ectopic tissue samples were harvested and subjected to μCT and histological analyses.
After fixation, samples were subjected to μCT analysis using a CT35 scanner (SCANCO USA™ Inc., Southeastern, PA) at 55 kV and […] for bone volume/tissue volume (BV/TV) analysis. Normalized BV/TV means were calculated by ratios of experimental versus control values.
To further evaluate the roles of RARγ and the efficacy of RARγ antagonists on bone formation, the effects of three selective RARγ antagonists were compared with the RARγ agonist, NRX204647, using a mouse ectopic bone model. Recombinant human BMP-2 containing Matrigel™ (BMPMatrigel) was transplanted subcutaneously in the abdomens of CD-1 female mice (ectopic bone formation model). The injected BMP-Matrigel™ mixture rapidly solidified and developed endochondral bone within 10 to 12 days (see FIG. 13B).
The BMP-Matrigel™ injected mice were randomly subdivided into groups and subjected to oral gavage with vehicle corn oil, RARγ agonist or each of the 3 antagonists on day 3, 5 and 7 (see structures in FIG. 13A). The control mouse with vehicle treatment had inductive masses in the Matrigel™-injected sites (see FIG. 13B). Ectopic tissue masses were collected on day 12 and subjected to X-ray and μCT analyses. Micro-CT images of pellets harvested 12 days after implantation were taken. FIG. 13C.
Mice with Matrigel™ Pellets as described above were administered vehicle or 4 mg/kg CD2665 on day 3, 5 and 7 after BMP2-Matrigel™ transplantation by gavage, and then analyzed on Day 7 or Day 12. FIG. 14A. Separately, a second group of mice were administered vehicle or 4 mg/kg CD2665 on day 7, 9 and 11 after BMP2-Matrigel transplantation and analyzed either on day 12 or 17. Pellets were collected at the indicated time, fixed and subjected to μCT analysis (bottom row). Pellets were then sectioned and stained with Alcian blue for quantitation of cartilage (top row).
Samples were first subjected to μCT analysis and were then sectioned and stained with Alcian blue for quantification of cartilage. For each group, 3 sections each (1 mm interval of 4 independent samples) were analyzed. […] For the experiments shown in FIG. 15A, mice were administered vehicle or 4 mg/kg of CD2665 by gavage on day 3, 5 and 7 from BMP-Matrigel™ implantation and samples were collected on day 7 or 12.
To examine these later stages more closely, mice implanted with BMP-Matrigel™ were treated with a RARγ antagonist on day 7, 9 and 11, and the ectopic tissue masses were analyzed on day 12 or 17 (FIG. 15B). […] The findings reaffirm that RARγ antagonists enhance cartilage formation during the middle stages of endochondral ossification and eventually lead to increases in bone formation. For experiments in FIG. 15B, mice were administered vehicle or 4 mg/kg CD2665 by gavage on day 7, 9 and 11 from implantation and analyzed on day 12 or 17. […]
Subcutaneous transplantation of rhBMP-2 containing Matrigel™ (BMP-Matrigel™) pellets in the abdomens of 2-month-old CD-1 female mice was performed. On day 3 and 10, 5 μl of empty NP or 7c-loaded NP (7c-NP: 3.5 μg in 5 μl) were injected around the Matrigel™ pellets. Ectopic bone tissue was corrected on day 15 and subjected to μCT analysis.

[2] = test system: retinoic acid response element (RARE)-Luc; assay: RARE-luc reporter assay in primary mouse chondrocytes; format: cell-based; conditions: 10 nM RA added, 0.3% FBS DMEM
Protocol: Primary mouse epiphyseal chondrocytes were isolated from neonatal C57BL/6J mice according to known methods (Yasuhara et al., Lab. Invest. 91(12):1739-1752, 2011) and were plated on 48- or 96-well plates and serum-starved overnight. Cultures were co-transfected with canonical BMP signaling reporter Id1-Luc or retinoic acid response element (RARE)-Luc plasmids and phRG-TK (Promega™) using Lipofectamine LTX™ and Plus™ reagent (Invitrogen™) according to the manufacturer's protocol. Twenty four hours later, cells were treated with rhBMP-2 and/or retinoid and incubated for an additional 24 hours. Cells then were harvested and subjected to dual luciferase assay (Promega™). Firefly luciferase activity was normalized to renilla luciferase activity generated by phRG-TK.
Monitoring activity of RARγ antagonists by RARE reporter assay. Cells were treated with indicated doses of CD2665 or MM11253. To detect the effect of RARγ antagonists in retinoid deficient culture condition (0.3% FBS DMEM), 10 nM RA was added to all cultures in experiments reported in FIG. 8A, FIG. 8B and FIG. 8C.
Primary mouse chondrocytes were isolated and transfected with the RARE-luc reporter gene by reverse transfection according to known methods. Details of the procedure are described in Cong et al., J. Biomater. Sci. Polym. Ed. 26(11):629-643, 2015. […]

[3] = 4 mg/kg gavage day 3, 5, 7, analysed day 12
[4] = 4 mg/kg gavage day 7, 9, 11, analysed day 12

| Compound | amount of cartilage in ectopic masses (Alcian blue) ([1]; 4 mg/kg gavage day 3, 5, 7, analysed day 7) | area of cartilage in ectopic masses (Alcian blue) [1, 3] | mineralized tissue volume vs control (μCT) [1, 3] | amount of mineralized tissue vs control [1, 4] | cartilaginous tissue in ectopic masses [1, 4] | volume of bone vs control ([1]; 4 mg/kg gavage day 7, 9, 11, analysed day 17) | biological activities in an ectopic bone formation model [1] | ectopic bone formation (μCT, BV/TV) [1] | RARE-luc reporter activity (antagonists) [2] |
| --- | --- | --- | --- | --- | --- | --- | --- | --- | --- |
| COCCOCOc1cc2ccc(-c3ccc(C(=O)O)cc3)cc2cc1C12CC3CC(CC(C3)C1)C2 [CD2665] | significantly higher amount of cartilage than controls | still more abundant in treated than control samples | about 2 fold | not significant | more cartilaginous tissue | significantly larger volume of bone than controls | proven biological activities | significantly increased the amount of detectable bone | inhibited RARE-luc reporter activity |
| CC1(C)CCC(C)(C)c2cc(C3(c4ccc5cc(C(=O)O)ccc5c4)SCCS3)ccc21 [MM11253] | – | – | – | – | – | – | proven biological activities | significantly increased the amount of detectable bone | inhibited RARE-luc reporter activity |
